According to patent US4617314A, “Benzofuran- and benzopyran-carboxamide derivatives” (priority 1983, dated 1986):

Key:
[1] = tested on: hypermotility of mice induced by apomorphine; experiment: Anti-apomorphine Action (mice): suppression of spontaneous motility; assay type: in vivo, mice (male dd-strain); conditions: 60 min before 0.5 mg/kg apomorphine hydrochloride, 50% suppression of spontaneous motility; for ED50: Mus musculus, po; for Anti-apomorphine Action ED50, Mice, Motility: p.o.
From the text: (§1) Dopamine antagonism was observed by the antagonism to
(1) hypermotility of mice, and
(§2) induced by the administration of apomorphine to the animals which drug acts on dopamine. The response of (1) is considered to be due to the action of dopamine on the mesolimbic system whereas the response of (2) is regarded mainly as the action of dopamine on the extrapyramidal system. As a consequence, a drug having high selectivity to the antagonism to the response of (1) is deemed to be more useful with less extrapyramidal side effects.
Groups of 5 male dd-strain mice were used. Test compounds were orally administered and 60 minutes thereafter, 0.5 mg/kg of apomorphine hydrochloride was intracutaneously administered. Immediately thereafter, spontaneous motility of the mice was measured with the aid of Animex (manufactured by Columbus Company, U.S.A.) for 20 minutes. The procedure was repeated three times with respective groups. The dose of test compounds required for 50% suppression of spontaneous motility of control group was graphically intraporated and determined as ED50 value.

[2] = tested on: stereotyped behavior of rats induced by apomorphine; experiment: Anti-apomorphine Action (rats): suppression of gnawing (stereotyped) behavior; assay type: in vivo, rats (female Wistar); conditions: Rattus norvegicus, po, 60 min before 1.25 mg/kg i.v. apomorphine hydrochloride; 50% suppression of gnawing behavior; probit
From the text: as §1
(2) stereotyped behavior of rats
as §2
Groups of 7 female Wistar rats were used. Test compounds were orally administered, 60 minutes thereafter, apomorphine hydrochloride was intravenously administered at a dosage of 1.25 mg/kg. After 5 minutes and 20 minutes, respectively, whether gnawing behavior (stereotyped behavior) appears or not during the period of 5 minutes was observed. The dose of test compounds required for 50% suppression of the appearance was evaluated as ED50 value by probit method.

[3] = tested on: rats administered with methamphetamine; experiment: Methamphetamine Potentiation Action (lethality increasing effect); assay type: in vivo, rats (male Wistar); conditions: 8 rats/group, methamphetamine hydrochloride 5 mg/kg i.p.
Protocol: Activation effect was construed as lethality increasing effect of a test drug on rats which were administered with methamphetamine at a non-lethal dose every week. Accordingly, it is considered that the greater is the number of rats which died at a lower dose in an earlier week, the activation activity is the higher.
Groups of 8 male Wistar rats weighing above […] were used. Test compounds are intraperitoneally administered and 15 minutes thereafter, 5 mg/kg of methamphetamine hydrochloride was intraperitoneally administered. Number of dead rats within one week was counted. In the 2nd to 4th week, experiment was likewise repeated at one week intervals by the administration of test compounds and methamphetamine hydrochloride.

[4] = in vivo; cited from earlier work
extrapyramidal system = conditions: cited from earlier work
[5] = in vivo, po; cited from earlier work

SMILES: CC1Cc2cc(S(N)(=O)=O)cc(C(=O)NCC3CCCN3Cc3ccccc3)c2O1 (centres unmarked) [D, N-(1-benzyl-2-pyrrolidinylmethyl)-2-methyl-5-sulfamoyl-2,3-dihydrobenzofuran-7-carboxamide]
- ED50 [1]: 6 mg/kg
- ED50 [2]: 21 mg/kg

SMILES: CCN1CCCC1CNC(=O)c1cc(S(N)(=O)=O)cc2c1OC(C)C2 (single isomer, unassigned) [C, N-(1-ethyl-2-pyrrolidinylmethyl)-2-methyl-5-sulfamoyl-2,3-dihydrobenzofuran-7-carboxamide]
- Anti-apomorphine Action ED50, Mice, Motility [1]: 85 mg/kg

SMILES: CCN1CCCC1CNC(=O)c1cc(SC)cc2c1OC(C)C2.Cl (centres unmarked) [K, N-(1-ethyl-2-pyrrolidinylmethyl)-2-methyl-5-methylthio-2,3-dihydrobenzofuran-7-carboxamide hydrochloride]
- ED50 [1]: 0.65 mg/kg
- ED50 [2]: 0.2 mg/kg

SMILES: CCN1CCCC1CNC(=O)c1cc(S(N)(=O)=O)cc2c1OC(C)C2 (centres unmarked) [A, N-(1-ethyl-2-pyrrolidinylmethyl)-2-methyl-5-sulfamoyl-2,3-dihydrobenzofuran-7-carboxamide]
- ED50 [1]: 80 mg/kg
- ED50 [2]: > 100 mg/kg
- Methamphetamine Potentiation Action, Number of Dead Animal, Total Number ([3]; 1st Week, 5 mg/kg): 1
- Methamphetamine Potentiation Action, Number of Dead Animal, Total Number ([3]; 1st Week, 10 mg/kg): 0
- Methamphetamine Potentiation Action, Number of Dead Animal, Total Number ([3]; 1st Week, 20 mg/kg): 2
- Methamphetamine Potentiation Action, Number of Dead Animal, Total Number ([3]; 2nd Week, 5 mg/kg): 1
- Methamphetamine Potentiation Action, Number of Dead Animal, Total Number ([3]; 2nd Week, 10 mg/kg): 3
- Methamphetamine Potentiation Action, Number of Dead Animal, Total Number ([3]; 2nd Week, 20 mg/kg): 5
- Methamphetamine Potentiation Action, Number of Dead Animal, Total Number ([3]; 3rd Week, 5 mg/kg): 1
- Methamphetamine Potentiation Action, Number of Dead Animal, Total Number ([3]; 3rd Week, 10 mg/kg): 4
- Methamphetamine Potentiation Action, Number of Dead Animal, Total Number ([3]; 3rd Week, 20 mg/kg): 5
- Methamphetamine Potentiation Action, Number of Dead Animal, Total Number ([3]; 4th Week, 5 mg/kg): 1
- Methamphetamine Potentiation Action, Number of Dead Animal, Total Number ([3]; 4th Week, 10 mg/kg): 4
- Methamphetamine Potentiation Action, Number of Dead Animal, Total Number ([3]; 4th Week, 20 mg/kg): 7

SMILES: CC(C)CN1CCCC1CNC(=O)c1cc(S(N)(=O)=O)cc2c1OC(C)C2 (centres unmarked) [H, N-(1-isobutyl-2-pyrrolidinylmethyl)-2-methyl-5-sulfamoyl-2,3-dihydrobenzofuran-7-carboxamide]
- ED50 [1]: 19 mg/kg
- ED50 [2]: 60 mg/kg
- Methamphetamine Potentiation Action, Number of Dead Animal, Total Number ([3]; 1st Week, 20 mg/kg): 0
- Methamphetamine Potentiation Action, Number of Dead Animal, Total Number ([3]; 1st Week, 40 mg/kg): 2
- Methamphetamine Potentiation Action, Number of Dead Animal, Total Number ([3]; 2nd Week, 20 mg/kg): 6
- Methamphetamine Potentiation Action, Number of Dead Animal, Total Number ([3]; 2nd Week, 40 mg/kg): 4
- Methamphetamine Potentiation Action, Number of Dead Animal, Total Number ([3]; 3rd Week, 20 mg/kg): 6
- Methamphetamine Potentiation Action, Number of Dead Animal, Total Number ([3]; 3rd Week, 40 mg/kg): 7
- Methamphetamine Potentiation Action, Number of Dead Animal, Total Number ([3]; 4th Week, 20 mg/kg): 7
- Methamphetamine Potentiation Action, Number of Dead Animal, Total Number ([3]; 4th Week, 40 mg/kg): 7

SMILES: CCCCN1CCCC1CNC(=O)c1cc(S(N)(=O)=O)cc2c1OC(C)C2 (centres unmarked) [Compound I, N-(1-butyl-2-pyrrolidinylmethyl)-2-methyl-5-sulfamoyl-2,3-dihydrobenzofuran-7-carboxamide]
- ED50 [1]: 30 mg/kg
- ED50 [2]: > 100 mg/kg

SMILES: CCN1CCCC1CNC(=O)c1cc(S(N)(=O)=O)cc2c1OCC2.O (centres unmarked) [L, N-(1-ethyl-2-pyrrolidinylmethyl)-5-sulfamoyl-2,3-dihydrobenzofuran-7-carboxamide monohydrate]
- Methamphetamine Potentiation Action, Number of Dead Animal, Total Number ([3]; 1st Week, 25 mg/kg): 3
- Methamphetamine Potentiation Action, Number of Dead Animal, Total Number ([3]; 2nd Week, 25 mg/kg): 3
- Methamphetamine Potentiation Action, Number of Dead Animal, Total Number ([3]; 3rd Week, 25 mg/kg): 7
- Methamphetamine Potentiation Action, Number of Dead Animal, Total Number ([3]; 4th Week, 25 mg/kg): 8

SMILES: CC(C)CN1CCCC1CNC(=O)c1cc(S(N)(=O)=O)cc2c1OCC2 (centres unmarked) [G, N-(1-isobutyl-2-pyrrolidinylmethyl)-5-sulfamoyl-2,3-dihydrobenzofuran-7-carboxamide]
- ED50 [1]: 35 mg/kg
- ED50 [2]: > 100 mg/kg

SMILES: NS(=O)(=O)c1cc2c(c(C(=O)NCC3CCCN3Cc3ccccc3)c1)OCC2 (centres unmarked) [F, N-(1-benzyl-2-pyrrolidinylmethyl)-5-sulfamoyl-2,3-dihydrobenzofuran-7-carboxamide]
- ED50 [1]: 17 mg/kg
- ED50 [2]: > 100 mg/kg
- Methamphetamine Potentiation Action, Number of Dead Animal, Total Number ([3]; 1st Week, 10 mg/kg): 0
- Methamphetamine Potentiation Action, Number of Dead Animal, Total Number ([3]; 1st Week, 25 mg/kg): 0
- Methamphetamine Potentiation Action, Number of Dead Animal, Total Number ([3]; 1st Week, 50 mg/kg): 0
- Methamphetamine Potentiation Action, Number of Dead Animal, Total Number ([3]; 2nd Week, 10 mg/kg): 0
- Methamphetamine Potentiation Action, Number of Dead Animal, Total Number ([3]; 2nd Week, 25 mg/kg): 0
- Methamphetamine Potentiation Action, Number of Dead Animal, Total Number ([3]; 2nd Week, 50 mg/kg): 2
- Methamphetamine Potentiation Action, Number of Dead Animal, Total Number ([3]; 3rd Week, 10 mg/kg): 0
- Methamphetamine Potentiation Action, Number of Dead Animal, Total Number ([3]; 3rd Week, 25 mg/kg): 1
- Methamphetamine Potentiation Action, Number of Dead Animal, Total Number ([3]; 3rd Week, 50 mg/kg): 3
- Methamphetamine Potentiation Action, Number of Dead Animal, Total Number ([3]; 4th Week, 10 mg/kg): 1
- Methamphetamine Potentiation Action, Number of Dead Animal, Total Number ([3]; 4th Week, 25 mg/kg): 2
- Methamphetamine Potentiation Action, Number of Dead Animal, Total Number ([3]; 4th Week, 50 mg/kg): 6

SMILES: CC1Cc2cc(S(N)(=O)=O)cc(C(=O)NC3CCN(Cc4ccccc4)C3)c2O1 (centres unmarked) [Compound E, N-(1-benzyl-3-pyrrolidinyl)-2-methyl-5-sulfamoyl-2,3-dihydrobenzofuran-7-carboxamide]
- ED50 [1]: 100 mg/kg
- ED50 [2]: > 100 mg/kg

SMILES: CCN1CCCC1CNC(=O)c1cc(S(N)(=O)=O)ccc1OC (centres unmarked) [Sulpyride, reference compound]
- ED50 [1]: 330 mg/kg
- crossing of blood-brain barrier [4]: difficult to cross blood-brain barrier
- ED50 [2]: > 500 mg/kg
- cataleptogenic activity (extrapyramidal system; as opposed to butyrophenone-series (haloperidol) or phenothiazine-series (chlorpromazine) compounds): weak
- side effects on the extrapyramidal system (extrapyramidal system; in vivo): less side effects
- uptake rate in living organisms [5]: low uptake rate
- Methamphetamine Potentiation Action, Number of Dead Animal, Total Number ([3]; 1st Week, 20 mg/kg): 0
- Methamphetamine Potentiation Action, Number of Dead Animal, Total Number ([3]; 1st Week, 40 mg/kg): 0
- Methamphetamine Potentiation Action, Number of Dead Animal, Total Number ([3]; 1st Week, 80 mg/kg): 2
- Methamphetamine Potentiation Action, Number of Dead Animal, Total Number ([3]; 2nd Week, 20 mg/kg): 0
- Methamphetamine Potentiation Action, Number of Dead Animal, Total Number ([3]; 2nd Week, 40 mg/kg): 0
- Methamphetamine Potentiation Action, Number of Dead Animal, Total Number ([3]; 2nd Week, 80 mg/kg): 3
- Methamphetamine Potentiation Action, Number of Dead Animal, Total Number ([3]; 3rd Week, 20 mg/kg): 0
- Methamphetamine Potentiation Action, Number of Dead Animal, Total Number ([3]; 3rd Week, 40 mg/kg): 1
- Methamphetamine Potentiation Action, Number of Dead Animal, Total Number ([3]; 3rd Week, 80 mg/kg): 3
- Methamphetamine Potentiation Action, Number of Dead Animal, Total Number ([3]; 4th Week, 20 mg/kg): 0
- Methamphetamine Potentiation Action, Number of Dead Animal, Total Number ([3]; 4th Week, 40 mg/kg): 1
- Methamphetamine Potentiation Action, Number of Dead Animal, Total Number ([3]; 4th Week, 80 mg/kg): 3

SMILES: CCN1CCCC1CNC(=O)c1cc(S(=O)(=O)NC)cc2c1OC(C)C2.Cl (centres unmarked) [J, N-(1-ethyl-2-pyrrolidinylmethyl)-2-methyl-5-methylsulfamoyl-2,3-dihydrobenzofuran-7-carboxamide hydrochloride]
- ED50 [1]: 10 mg/kg
- ED50 [2]: > 100 mg/kg

SMILES: CCN1CCCC1CNC(=O)c1cc(S(N)(=O)=O)cc2c1OC(C)C2 (single isomer, unassigned) [B, N-(1-ethyl-2-pyrrolidinylmethyl)-2-methyl-5-sulfamoyl-2,3-dihydrobenzofuran-7-carboxamide]
- Anti-apomorphine Action ED50, Mice, Motility [1]: 23 mg/kg
